In the supplement of paper PMC10307832:

Tests used:
Experiment in all cases: relative viability (nuclei count vs DMSO), 5 days (fraction); higher = more cells survive
[1] = compound: CCN1CCN(c2ccc(Nc3cc(N(C)C(=O)Nc4c(Cl)c(OC)cc(OC)c4Cl)ncn3)cc2)CC1 [BGJ398] + CC(=O)c1c(C)c2cnc(Nc3ccc(N4CCNCC4)cn3)nc2n(C2CCCC2)c1=O [Palbociclib] (partner 0.5 µM)
How it was run: (§1)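 Medians of duplicate plates are given as relative viability. That measure is the nuclei count in treated wells divided by the count in vehicle wells. Counts were taken on 4× images of lung cancer cell lines in 1536-well plates, 5 days after pin-tool dosing the day after seeding with one drug alone or a fixed anchor-drug dose plus five library-drug doses (not always all listed) in √10 steps.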

[2] = compound: CCN1CCN(c2ccc(Nc3cc(N(C)C(=O)Nc4c(Cl)c(OC)cc(OC)c4Cl)ncn3)cc2)CC1 [BGJ398] + N=C(N)NC(=N)NCCc1ccccc1 [Phenformin] (partner 250 µM)
How it was run: as §1

[3] = compound: CCN1CCN(c2ccc(Nc3cc(N(C)C(=O)Nc4c(Cl)c(OC)cc(OC)c4Cl)ncn3)cc2)CC1 [BGJ398] + CCNC(=O)c1noc(-c2cc(C(C)C)c(O)cc2O)c1-c1ccc(CN2CCOCC2)cc1 [Luminespib] (partner 0.01 µM)
How it was run: as §1

[4] = compound: C1=CC2=NC=CN=C2C=C1/C=C/3\C(=O)NC(=O)S3 + CS(=O)(=O)CCNCc1ccc(-c2ccc3ncnc(Nc4ccc(OCc5cccc(F)c5)c(Cl)c4)c3c2)o1 [Lapatinib] (partner 2 µM)
How it was run: as §1

| Cell Line | relative viability ([1]; first compound 0.01 µM) | relative viability ([1]; first compound 0.03162 µM) | relative viability ([1]; first compound 0.1 µM) | relative viability ([1]; first compound 0.3162 µM) | relative viability ([1]; first compound 1 µM) | relative viability ([2]; first compound 0.01 µM) | relative viability ([2]; first compound 0.03162 µM) | relative viability ([2]; first compound 0.1 µM) | relative viability ([2]; first compound 0.3162 µM) | relative viability ([2]; first compound 1 µM) | relative viability ([3]; first compound 0.01 µM) | relative viability ([3]; first compound 0.03162 µM) | relative viability ([3]; first compound 0.1 µM) | relative viability ([3]; first compound 0.3162 µM) | relative viability ([3]; first compound 1 µM) | relative viability ([4]; first compound 0.02 µM) | relative viability ([4]; first compound 0.06325 µM) | relative viability ([4]; first compound 0.2 µM) | relative viability ([4]; first compound 0.6325 µM) | relative viability ([4]; first compound 2 µM) |
| --- | --- | --- | --- | --- | --- | --- | --- | --- | --- | --- | --- | --- | --- | --- | --- | --- | --- | --- | --- | --- |
| HCC-44 | 0.919 | 0.962 | 1.03 | 1.02 | 0.856 | 0.213 | 0.349 | 0.193 | 0.195 | 0.161 | 0.974 | 1.11 | 1.32 | 1.09 | 0.942 | 0.961 | 1.09 | 0.975 | 0.993 | 0.793 |
| COR-L23 | 0.299 | 0.332 | 0.269 | 0.288 | 0.273 | 0.42 | 0.441 | 0.5 | 0.397 | 0.391 | 0.745 | 0.731 | 0.598 | 0.799 | 0.789 | 0.832 | 1.31 | 0.921 | 0.771 | 0.923 |
| NCI-H727 | 0.806 | 0.651 | 0.647 | 0.686 | 0.691 | 0.668 | 0.521 | 0.635 | 0.568 | 0.516 | 0.365 | 0.467 | 0.367 | 0.345 | 0.314 | 0.803 | 0.706 | 0.918 | 0.795 | 0.297 |
| NCI-H2087 | 0.266 | 0.224 | 0.204 | 0.282 | 0.184 | 0.44 | 0.438 | 0.507 | 0.386 | 0.494 | 0.177 | 0.186 | 0.173 | 0.203 | 0.133 | 0.859 | 1.24 | 0.941 | 0.98 | 0.931 |
| BEN | 0.522 | 0.457 | 0.43 | 0.481 | 0.401 | 0.263 | 0.284 | 0.284 | 0.261 | 0.241 | 0.376 | 0.402 | 0.33 | 0.376 | 0.597 | 0.624 | 0.754 | 0.817 | 0.608 | 0.505 |
| EKVX | 0.436 | 0.291 | 0.384 | 0.359 | 0.394 | 0.216 | 0.211 | 0.235 | 0.234 | 0.209 | 0.783 | 0.859 | 0.999 | 0.782 | 0.966 | 0.215 | 0.18 | 0.251 | 0.207 | 0.146 |
| LXF-289 | 0.584 | 0.549 | 0.564 | 0.531 | 0.552 | 0.536 | 0.509 | 0.542 | 0.473 | 0.502 | 0.668 | 0.643 | 0.578 | 0.634 | 0.657 | 0.829 | 0.932 | 0.883 | 0.857 | 0.908 |
| ABC-1 | 0.647 | 0.593 | 0.584 | – | 0.945 | 0.287 | 0.255 | 0.262 | 0.22 | 0.213 | 0.795 | 0.782 | 0.507 | 0.912 | 0.876 | 1.06 | 0.754 | 1.18 | 1 | 1.02 |
| NCI-H650 | 0.313 | 0.375 | 0.321 | 0.379 | 0.315 | 0.419 | 0.442 | 0.512 | 0.458 | 0.391 | 0.803 | 0.913 | 0.784 | 0.84 | 0.98 | 1.13 | 1.1 | 1.09 | 0.835 | 0.5 |
| NCI-H1650 | 0.298 | 0.375 | 0.28 | 0.182 | 0.249 | 0.369 | – | 0.399 | 0.187 | 0.365 | 0.195 | – | 0.196 | 0.205 | 0.197 | 0.728 | 0.725 | 0.937 | 0.709 | 0.72 |
| NCI-H2085 | 0.494 | 0.476 | 0.472 | 0.447 | 0.521 | 0.668 | 0.663 | 0.817 | 0.782 | 0.807 | 0.308 | 0.485 | 0.564 | 0.498 | 0.422 | 0.725 | 0.635 | 0.785 | 0.755 | 0.713 |
| NCI-H1793 | 0.321 | 0.271 | 0.286 | 0.237 | 0.309 | 0.361 | 0.351 | 0.387 | 0.334 | 0.293 | 0.167 | 0.229 | 0.175 | 0.163 | 0.196 | 0.702 | 0.532 | 0.832 | 0.725 | 0.773 |
| LC-2-ad | 0.477 | 0.516 | 0.5 | 0.524 | 0.499 | 0.58 | 0.604 | 0.655 | 0.573 | 0.503 | 0.958 | 1.05 | 0.978 | 1.04 | 1.07 | 0.927 | 1.04 | 0.949 | 0.924 | 0.797 |
| COR-L 105 | 0.47 | 0.357 | 0.445 | 0.378 | 0.383 | 0.425 | 0.377 | 0.525 | 0.556 | 0.448 | 0.69 | 0.972 | 0.832 | 0.93 | 0.801 | 0.332 | 0.343 | 0.368 | 0.335 | 0.289 |
| NCI-H1355 | 0.417 | 0.402 | 0.376 | 0.389 | 0.386 | 0.44 | 0.465 | 0.454 | 0.464 | 0.423 | 0.683 | 0.705 | 0.793 | 0.735 | 0.696 | 0.811 | 0.929 | 1.05 | 0.919 | 0.766 |
| H3255 | 0.281 | 0.321 | 0.314 | 0.315 | 0.314 | 0.338 | – | 0.371 | 0.231 | 0.35 | 0.888 | – | 1.02 | 0.625 | 0.422 | 0.318 | 0.241 | 0.282 | 0.238 | 0.217 |
